Reference: patent US20260217699A1, “BERBERINE TAUROURSODEOXYCHOLATE COMPOSITIONS AND METHODS THEREOF” (SHENZHEN HIGHTIDE BIOPHARMACEUTICAL LTD., priority 2023, published 2026)
Like-named read-outs stand apart in the source and are kept apart here.

What was measured:
[1] = type: physicochemical; conditions: for Purity/%: initial purity 99.45%
Experimental: The standard XRPD patterns were collected using a Panalytical EMPYREAN (PANalytical, UK). The X-ray source was a Cu tube that was operated at 45 kV and 40 mA. Powder samples were prepared on zero-background Si holders using manual light pressure to keep the sample surface flat. Each sample was analyzed from 3 to 45° (2θ) with an effective step size of 0.013° 20. The measurement time of each sample was 3.5 min.
The stability of Form A was studied under high temperature (60° C.), high humidity (25° C./92.5% RH), light (25° C./4500 Lux), and accelerated (40° C./75% RH) conditions, and the samples were taken at 7 and 15 days for XRPD characterization and HPLC tests, respectively, and the results are shown in Tables 3-4 and FIG. 17.

[2] = Rapid dynamic vapor sorption (Fast DVS) of Form A; type: physicochemical
Experimental: (§1) The synthesized BTUDC was designated as crystalline form A (Form A), and its XRPD diffraction and other related characterization data are shown in FIGS. 11-15. […] (peak at 43° C.), and an endothermic peak at about 280° C.

[3] = Thermal transcrystallization experiment (variable temperature XRPD); type: physicochemical; conditions: heating to 150° C. and back to room temperature
Experimental: The form conversion by heating was carried out using an online variable temperature XRPD Malvern PANalytical Aeris (Malvern Panalytical, UK). The X-ray source was a Cu tube that was operated at 40 kV and 7.5 mA. Powder samples were prepared on zero-background Si holders using manual light pressure to keep the sample surface flat. Each sample was analyzed from 3 to 40° (2θ) with an effective step size of 0.02° 20. The measurement time of each sample was 13 min. The sample was placed on a BTS500 hot stage (Anton Paar, AT) to collected XRPD at RT, heated to the target temperature at 20° C./min and held for 10 min before XRPD analysis. The sample was then cooled to RT and characterized by XRPD.
as §1

[4] = Accelerated 40° C./75% RH, 7 Days
[5] = Accelerated 40° C./75% RH, 15 Days
[6] = High Humidity 25° C./92.5% RH, 7 Days
[7] = High Humidity 25° C./92.5% RH, 15 Days
[8] = Light Exposure 25° C./4500 Lux, 7 Days
[9] = Light Exposure 25° C./4500 Lux, 15 Days

COc1ccc2cc3[n+](cc2c1OC)CCc1cc2c(cc1-3)OCO2.C[C@H](CCC(=O)NCCS(=O)(=O)[O-])[C@H]1CC[C@H]2[C@@H]3[C@@H](O)C[C@@H]4C[C@H](O)CC[C@]4(C)[C@H]3CC[C@]12C [Form A, berberine tauroursodeoxycholate]
XRPD Changes [1, 4]: No
Purity/% [1, 4]: 99.44%
XRPD Changes [1, 5]: No
Purity/% [1, 5]: 99.41%
Relative Peak Area (%) ([1]; HPLC main peak RRT 1.00, Accelerated 15 Days, Day 0: 99.45): 99.41%
Relative Peak Area (%) ([1]; HPLC main peak RRT 1.00, High Humidity 15 Days, Day 0: 99.45): 99.44%
Relative Peak Area (%) ([1]; HPLC main peak RRT 1.00, High Temp. 15 Days, Day 0: 99.45): 99.24%
Relative Peak Area (%) ([1]; HPLC main peak RRT 1.00, Light Exposure 15 Days, Day 0: 99.45): 98.53%
Relative Peak Area (%) ([1]; HPLC peak RRT 0.39, Light Exposure 15 Days, Day 0: /): 0.05%
Relative Peak Area (%) ([1]; HPLC peak RRT 0.55, Light Exposure 15 Days, Day 0: /): 0.06%
Relative Peak Area (%) ([1]; HPLC peak RRT 0.70, Accelerated 15 Days, Day 0: 0.05): 0.07%
Relative Peak Area (%) ([1]; HPLC peak RRT 0.70, High Humidity 15 Days, Day 0: 0.05): 0.07%
Relative Peak Area (%) ([1]; HPLC peak RRT 0.70, High Temp. 15 Days, Day 0: 0.05): 0.10%
Relative Peak Area (%) ([1]; HPLC peak RRT 0.70, Light Exposure 15 Days, Day 0: 0.05): 0.77%
Relative Peak Area (%) ([1]; HPLC peak RRT 0.73, Light Exposure 15 Days, Day 0: /): 0.03%
Relative Peak Area (%) ([1]; HPLC peak RRT 0.76, Light Exposure 15 Days, Day 0: /): 0.07%
Relative Peak Area (%) ([1]; HPLC peak RRT 0.79, Light Exposure 15 Days, Day 0: /): 0.05%
Relative Peak Area (%) ([1]; HPLC peak RRT 0.82, Accelerated 15 Days, Day 0: 0.13): 0.13%
Relative Peak Area (%) ([1]; HPLC peak RRT 0.82, High Humidity 15 Days, Day 0: 0.13): 0.13%
Relative Peak Area (%) ([1]; HPLC peak RRT 0.82, High Temp. 15 Days, Day 0: 0.13): 0.13%
Relative Peak Area (%) ([1]; HPLC peak RRT 0.82, Light Exposure 15 Days, Day 0: 0.13): 0.11%
Relative Peak Area (%) ([1]; HPLC peak RRT 0.84, Accelerated 15 Days, Day 0: 0.06): 0.07%
Relative Peak Area (%) ([1]; HPLC peak RRT 0.84, High Humidity 15 Days, Day 0: 0.06): 0.06%
Relative Peak Area (%) ([1]; HPLC peak RRT 0.84, High Temp. 15 Days, Day 0: 0.06): 0.06%
Relative Peak Area (%) ([1]; HPLC peak RRT 0.84, Light Exposure 15 Days, Day 0: 0.06): 0.06%
Relative Peak Area (%) ([1]; HPLC peak RRT 0.90, Accelerated 15 Days, Day 0: 0.31): 0.32%
Relative Peak Area (%) ([1]; HPLC peak RRT 0.90, High Humidity 15 Days, Day 0: 0.31): 0.30%
Relative Peak Area (%) ([1]; HPLC peak RRT 0.90, High Temp. 15 Days, Day 0: 0.31): 0.48%
Relative Peak Area (%) ([1]; HPLC peak RRT 0.90, Light Exposure 15 Days, Day 0: 0.31): 0.27%
XRPD Changes [1, 6]: No
Purity/% [1, 6]: 99.44%
XRPD Changes [1, 7]: No
Purity/% [1, 7]: 99.44%
XRPD Changes ([1]; High Temp. 60° C., 7 Days): No
Purity/% ([1]; High Temp. 60° C., 7 Days): 99.28%
XRPD Changes ([1]; High Temp. 60° C., 15 Days): No
Purity/% ([1]; High Temp. 60° C., 15 Days): 99.24%
XRPD Changes [1, 8]: No
Purity/% [1, 8]: 98.92%
XRPD Changes [1, 9]: No
Purity/% [1, 9]: 98.53%
change in chemical purity (HPLC) ([1]; high temperature, high humidity and accelerated conditions for 15 days): no significant change
change in chemical purity (HPLC) ([1]; light conditions for 15 days): significant decrease
adsorption weight gain ([2]; at 80% RH): about 0.46%
desorption weight gain ([2]; at 80% RH): about 0.49%
adsorption weight gain ([2]; at 95% RH): about 0.74%
change in crystalline shape after the DVS test (XRPD) ([2]; compared to the pre-test): did not undergo any change in crystalline shape
crystalline form during heating [3]: remained unchanged
